# In patent US5066676A, “Sulfonamido derivative inhibiting the aldose reductase enzyme system and pharmaceutical compositions containing them” (Laboratori Baldacci SpA, priority 1987, dated 1991):
# Legend:
# [1] = system: galactosemic cataract in the rat; assay: Action on the appearance of the galactosemic cataract (rat); type: in vivo
# Experimental: (§1) With the compound bearing the abbreviation ARI 6 the following tests have been carried out in the rat and in the rabbit.
# Action on the appearance of the galactosemic cataract (rat)
# Effects of the administration of ARI-6 (5 and 25 mg/kg/die, os)
# on the appearance of the galactosemic cataract in the rat.
# […] In the brackets the number of animals for each group is indicated.
# The diet contains D-galactose 50%.
# Effects of the administration of ARI-1 (5 and 25 mg/kg/die, os)
# Acute toxicity: mice = conditions: in vivo, mouse (Swiss), read-out: % Death
# Experimental: (§2) The toxicity tests after only one administration have been carried out on two animal species (mice and rats), using two administration routes (os, iv).
# For these tests Swiss mice have been used, of both sexes, having average weight 20 g, fasted after 18 hours and administered with water ad libitum. The animals were maintained under standard environment conditions (temperature: 20°-22° C. and moisture 50%).
# (§3) The compounds have been administered by gastric probe, suspended in Methocell or by injection (iv) dissolved in physiological solution with the addition of sodium bicarbonate.
# (§4) The animals have been kept under observation for 15 days. The controls have been carried out several times in the first days and twice a day in the next days. In the table 1 the conditions used and the results obtained are reported.
# Acute toxicity: rat = conditions: in vivo, rat (Wistar), 20 ml/kg, read-out: % Death
# Description: as §2, §3, §4
# Wistar rats, of both sexes have been used of average weight of 120 g, fasted after 18 hours and with water at libitum. The conditions of stalling and the administration ways were the same as those reported in the preceeding paragraph (acute toxicity: mouse).
# aldose reductase = molecular target: T1, aldose reductase (Bos taurus, UniProt P16116); assay: In vitro inhibition of aldose reductase activity of raw extracts from bovine crystalline lens; type: biochemical; conditions: glyceraldehyde substrate, NADPH, pH 6.8, 37° C.; read-out: IC50 on the aldose reductase activity of raw extracts originating from bovine crystalline lens
# T1 construct: 4 bovine crystalline lenses (8 g) are homogenized by means of Potter in ice bath; from tissue; host or cells: bovine crystalline lens
# Experimental: "In vitro" tests have been carried out to evalute the inhibition of the aldose reductase activity, prepared from the extract of bovine crystalline lenses.
# PREPARATION OF THE RAW EXTRACTS
# 4 bovine crystalline lenses (8 g) are homogenized by means of Potter in ice bath with 40 ml of 50 mM phosphate buffer, pH 6.8, containing 2-mercaptoethanol pH ([…]). After centrifugation (12.000×g -20 min-4° C.) the supernatant is brought to 40% saturation with an ammonium sulphate and centrifugated again (14.000×g). The supernatant is then brought to the 80% saturation ((NH4)2 SO4) and, after centrifugation for 20 minutes and at 14.000×g, the sedimented matter is recovered and suspended in 7 ml of phosphate buffer. The enzymatic preparation is dialyzed by ultrafiltration with AMICON ultrafiltration cell.
# DOSAGE OF THE ENZYMATIC ACTIVITY
# The reference cuvette contains all the several substances apart from the substrate.
# [2] = system: diabetic cataract in the rat; assay: Action on the appearance of the diabetic cataract (rat); type: in vivo; conditions: Table 7, 25 mg/kg/die per os
# Experimental: as §1
# Action on the appearance of the diabetic cataract (rat).
# Effects of the administration of ARI 6 (25 mg/kg/die, per os)
# on the appearance of the diabetic cataract in the rat.
# The values are expressed as percentages. Within brackets there are indicated the animals for each group.
# Effects of the administration of ARI-1 (25 mg/kg/die, per os)
# [3] = Table 6, 5 mg/kg/die os, day 5 of diet
# [4] = Table 6, 5 mg/kg/die os, day 10 of diet, * p < 0.05 vs controls
# [5] = Table 6, 5 mg/kg/die os, day 15 of diet, * p < 0.05 vs controls
# [6] = Table 6, 5 mg/kg/die os, day 20 of diet, * p < 0.05 vs controls
# [7] = Table 6, 5 mg/kg/die os, day 25 of diet, * p < 0.05 vs controls
# [8] = Table 6, 5 mg/kg/die os, day 30 of diet, * p < 0.05 vs controls
# [9] = Table 6, 5 mg/kg/die os, day 35 of diet, * p < 0.05 vs controls
# [10] = Table 6, 5 mg/kg/die os, day 40 of diet, * p < 0.05 vs controls
# [11] = Table 6, 5 mg/kg/die os, day 45 of diet, * p < 0.05 vs controls
# [12] = Table 6, 5 mg/kg/die os, day 50 of diet
# [13] = Table 6, 25 mg/kg/die os, day 5 of diet
# [14] = Table 6, 25 mg/kg/die os, day 10 of diet, * p < 0.05 vs controls
# [15] = Table 6, 25 mg/kg/die os, day 15 of diet, * p < 0.05 vs controls
# [16] = Table 6, 25 mg/kg/die os, day 20 of diet, * p < 0.05 vs controls
# [17] = Table 6, 25 mg/kg/die os, day 25 of diet, * p < 0.05 vs controls
# [18] = Table 6, 25 mg/kg/die os, day 30 of diet, * p < 0.05 vs controls
# [19] = Table 6, 25 mg/kg/die os, day 35 of diet, * p < 0.05 vs controls
# [20] = Table 6, 25 mg/kg/die os, day 40 of diet, * p < 0.05 vs controls
# [21] = Table 6, 25 mg/kg/die os, day 45 of diet, * p < 0.05 vs controls
# [22] = Table 6, 25 mg/kg/die os, day 50 of diet
# [23] = day 10 from streptozotocine, * p < 0.05 vs controls
# [24] = day 15 from streptozotocine, * p < 0.05 vs controls
# [25] = day 20 from streptozotocine, * p < 0.05 vs controls
# [26] = day 25 from streptozotocine, * p < 0.05 vs controls
# [27] = day 30 from streptozotocine, * p < 0.05 vs controls
# [28] = day 35 from streptozotocine, * p < 0.05 vs controls
# [29] = day 40 from streptozotocine, * p < 0.05 vs controls
# [30] = day 45 from streptozotocine, * p < 0.05 vs controls
# [31] = day 50 from streptozotocine, * p < 0.05 vs controls
structure (smiles),measurement,setting,value
"Cc1cc(C)c(S(=O)(=O)N(C)CC(=O)O)cc1S(=O)(=O)N(C)CC(=O)O [ARI 1, 4,6-dimethyl-1,3-bis (N-methyl-N-caboxymethl) sulfamoybenzene]",number of eyes with cataract on the total number of observed eyes,[1]; [3],0/20
same,percentage of eyes with cataract,[1]; [3],0.0%
same,number of eyes with cataract on the total number of observed eyes,[1]; [4],0/20
same,percentage of eyes with cataract,[1]; [4],0.0%
same,number of eyes with cataract on the total number of observed eyes,[1]; [5],0/20
same,percentage of eyes with cataract,[1]; [5],0.0%
same,number of eyes with cataract on the total number of observed eyes,[1]; [6],0/20
same,percentage of eyes with cataract,[1]; [6],0.0%
same,number of eyes with cataract on the total number of observed eyes,[1]; [7],3/20
same,percentage of eyes with cataract,[1]; [7],15.0%
same,number of eyes with cataract on the total number of observed eyes,[1]; [8],4/20
same,percentage of eyes with cataract,[1]; [8],20.0%
same,number of eyes with cataract on the total number of observed eyes,[1]; [9],8/20
same,percentage of eyes with cataract,[1]; [9],40.0%
same,number of eyes with cataract on the total number of observed eyes,[1]; [10],8/20
same,percentage of eyes with cataract,[1]; [10],100.0%
same,number of eyes with cataract on the total number of observed eyes,[1]; [11],20/20
same,percentage of eyes with cataract,[1]; [11],100.0%
same,number of eyes with cataract on the total number of observed eyes,[1]; [12],20/20
same,percentage of eyes with cataract,[1]; [12],100.0%
same,number of eyes with cataract on the total number of observed eyes,[1]; [13],0/20
same,percentage of eyes with cataract,[1]; [13],0.0%
same,number of eyes with cataract on the total number of observed eyes,[1]; [14],0/20
same,percentage of eyes with cataract,[1]; [14],0.0%
same,number of eyes with cataract on the total number of observed eyes,[1]; [15],0/20
same,percentage of eyes with cataract,[1]; [15],0.0%
same,number of eyes with cataract on the total number of observed eyes,[1]; [16],0/20
same,percentage of eyes with cataract,[1]; [16],0.0%
same,number of eyes with cataract on the total number of observed eyes,[1]; [17],0/20
same,percentage of eyes with cataract,[1]; [17],0.0%
same,number of eyes with cataract on the total number of observed eyes,[1]; [18],0/20
same,percentage of eyes with cataract,[1]; [18],0.0%
same,number of eyes with cataract on the total number of observed eyes,[1]; [19],0/20
same,percentage of eyes with cataract,[1]; [19],0.0%
same,number of eyes with cataract on the total number of observed eyes,[1]; [20],3/20
same,percentage of eyes with cataract,[1]; [20],15.0%
same,number of eyes with cataract on the total number of observed eyes,[1]; [21],5/20
same,percentage of eyes with cataract,[1]; [21],25.0%
same,number of eyes with cataract on the total number of observed eyes,[1]; [22],20/20
same,percentage of eyes with cataract,[1]; [22],100.0%
same,mortality at 360 h,"Acute toxicity: mice; po, 5000 mg/kg/os",0%
same,mortality at 360 h,"Acute toxicity: mice; 500 mg/kg/iv, 20 ml/kg",0%
same,mortality at 360 h,"Acute toxicity: rat; po, 5000 mg/kg/os",0%
same,mortality at 360 h,Acute toxicity: rat; 500 mg/kg/iv,0%
same,IC50,aldose reductase,3.6 µM
same,number of eyes with cataract with respect the total number of observed eyes,[2]; day 5 from streptozotocine,0/20
same,percentage of eyes with cataract,[2]; day 5 from streptozotocine,0.0%
same,number of eyes with cataract with respect the total number of observed eyes,[2]; [23],0/20
same,percentage of eyes with cataract,[2]; [23],0.0%
same,number of eyes with cataract with respect the total number of observed eyes,[2]; [24],0/20
same,percentage of eyes with cataract,[2]; [24],0.0%
same,number of eyes with cataract with respect the total number of observed eyes,[2]; [25],0/20
same,percentage of eyes with cataract,[2]; [25],0.0%
same,number of eyes with cataract with respect the total number of observed eyes,[2]; [26],0/20
same,percentage of eyes with cataract,[2]; [26],0.0%
same,number of eyes with cataract with respect the total number of observed eyes,[2]; [27],0/20
same,percentage of eyes with cataract,[2]; [27],0.0%
same,number of eyes with cataract with respect the total number of observed eyes,[2]; [28],0/20
same,percentage of eyes with cataract,[2]; [28],0.0%
same,number of eyes with cataract with respect the total number of observed eyes,[2]; [29],4/20
same,percentage of eyes with cataract,[2]; [29],20.0%
same,number of eyes with cataract with respect the total number of observed eyes,[2]; [30],6/20
same,percentage of eyes with cataract,[2]; [30],30.0%
same,number of eyes with cataract with respect the total number of observed eyes,[2]; [31],20/20
same,percentage of eyes with cataract,[2]; [31],100.0%
